# What was measured:
# [1] = tested on: human dystrophin (DMD) exon 44; assay: Exon 44 skipping in DMD patient-derived muscle cells; format: cell-based; settings: dose-dependent, maximum observed
# Protocol: After 24 hours, the compound-containing growth medium was replaced with DMEM/2% horse serum and incubated for 5 days to promote myoblast fusion and differentiation into myotubes. Cells were washed and harvested for RNA extraction to assess exon 44 skipping, or in RIPA buffer containing protease inhibitors for protein extraction and Simple Western analysis of dystrophin protein restoration. Dystrophin levels were normalized to HSP90 and expressed relative to untreated healthy samples. Data are expressed as mean±SD, n=3-4. Untreated DMDΔ45 patient derived cells express ~10% spontaneous DMD exon 44 skipping and ~4% dystrophin protein at baseline.
# [2] = tested on: exon 44 of human dystrophin mRNA; assay: Exon 44 skipping by RT-PCR in hDMD mice; format: in vivo
# Protocol: The hemizygous mice were further genotyped at Transnetyx. All groups were dosed 5 mL/kg per animal by intravenous (iv) injection and sacrificed after 5 days post injection. All animals were euthanized by CO2 asphyxiation followed by terminal blood collection via cardiac puncture. Maximum obtainable volume of whole blood was collected into lithium heparin tubes and processed to plasma. A portion of plasma was analyzed for clinical chemistries by the Testing Facility (IDEXX) and the rest stored frozen at nominally −70° C. […] Animals were age matched and assigned into eight (8) treatment groups according to Table 15. […] All animals survived until their scheduled euthanasia time. Tissues were collected per protocol. The amount of AC and a cCPP-AC in various tissue samples was quantified by LC-MS. Exon skipping in different tissues were analyzed by RT-PCR and the quantification of exon 44 correction.
# (§1) Exon Skipping Analysis by RT-PCR: hDMD mice and NHP express full-length human dystrophin mRNA. The delivery of AC can alter the splicing and result in a shortened dystrophin mRNA after exon 44 skipping. The tissues were homogenized using 1 mL of RLT lysis buffer (Qiagen, Cat #79216). The detection of splicing correction process was measured by RT-PCR where extracted RNAs from tissues were first reverse-transcribed into cDNA and further analyzed by one step RT-PCR using the following primer set: forward primer 5′-[…]-3′ (SEQ ID NO: 262) and reverse primer 5′-[…]-3′ (SEQ ID NO: 263). […] Quantification of the relative intensity of the bands corresponding to skipped and unskipped transcripts were performed to assess AC-induced exon-44-skipping efficacy. The degree (percentage) of splicing correction detected by RT-PCR was calculated using the following equation: % correction=(intensity of 493 bp fragment band)/(intensity of 493 bp fragment band+intensity of 641 bp fragment band).
# [3] = tested on: exon 44 of dystrophin mRNA; assay: Exon 44 skipping by RT-PCR in NHP; format: in vivo, cynomolgus monkeys
# Protocol: Each testing article was formulated in saline at 4 mg/mL. Bloods and urine were taken at times indicated in Table 18 for further PK analysis. Biopsy at 2 days post injection was performed on biceps. Animals were sacrificed at day 7 post injection and skeletal muscles (quadriceps, diaphragm, biceps, deltoid, tibialis anterior (TiA), smooth muscles (esophagus, aorta, colon) and cardiac muscles (ventricle, atrium) were taken, pulverized, and stored at −80° C. for evaluation of exon skipping and biodistribution in tissues.
# as §1
# Approximately 20 hours post dose the animal was (bright, alert, and responsive such that the animal was phenotypically “normal”) (BAR) and had zero biscuits left in the cage and was observed eating produce.
substance,measurement,setting,value
Ac-PKKKRKV-AEEA-Lys-(cyclo[FGFGRGRQ])-PEG12-OH [EEV-PMO-DMD44-1],exon 44 skipping,[1],up to 100%
same,exon skipping,"[2]; hDMD mice, 10 mpk IV, 5 days, Diaphragm",6%
same,exon skipping,"[2]; hDMD mice, 10 mpk IV, 5 days, TiA",12%
same,exon skipping,"[2]; hDMD mice, 10 mpk IV, 5 days, Triceps",6%
same,exon skipping,"[2]; hDMD mice, 10 mpk IV, 5 days, heart",0%
same,exon skipping,"[2]; hDMD mice, 20 mpk IV, 5 days, Diaphragm",33%
same,exon skipping,"[2]; hDMD mice, 20 mpk IV, 5 days, TiA",36%
same,exon skipping,"[2]; hDMD mice, 20 mpk IV, 5 days, Triceps",22
same,exon skipping,"[2]; hDMD mice, 20 mpk IV, 5 days, heart",0%
same,exon skipping,"[2]; hDMD mice, 40 mpk IV, 5 days, Diaphragm",82%
same,exon skipping,"[2]; hDMD mice, 40 mpk IV, 5 days, TiA",99%
same,exon skipping,"[2]; hDMD mice, 40 mpk IV, 5 days, Triceps",94%
same,exon skipping,"[2]; hDMD mice, 40 mpk IV, 5 days, heart",20%
same,exon skipping,"[2]; hDMD mice, 80 mpk IV, 5 days, Diaphragm",98%
same,exon skipping,"[2]; hDMD mice, 80 mpk IV, 5 days, TiA",99%
same,exon skipping,"[2]; hDMD mice, 80 mpk IV, 5 days, Triceps",97%
same,exon skipping,"[2]; hDMD mice, 80 mpk IV, 5 days, heart",79%
same,minimum efficacious dose in the heart,"[2]; hDMD mice, IV, 5 days",40 mpk
same,exon skipping,"[2]; mouse, in vivo",up to 100%
same,exon 44 skipping across different muscle groups,"[3]; 30 mg/kg, 1 hour IV infusion, 7 days",robust exon 44 skipping
same,exon skipping in all skeletal muscles,"[3]; 40 mpk IV, 7-d post injection",more than 78%
same,"exon skipping, atrium","[3]; 40 mpk IV, 7-d post injection",23.4%
same,"exon skipping, diaphragm","[3]; 40 mpk IV, 7-d post injection",98.4%
same,"exon skipping, esophagus","[3]; 40 mpk IV, 7-d post injection",57.1%
same,"exon skipping, ventricle","[3]; 40 mpk IV, 7-d post injection",31.9%

# Reference: US20260199493A1 (priority 2021, published 2026)
